Reference: patent US9422267B2, “Fused pyrimidine compounds and use thereof” (Medivation Technologies, Inc., priority 2012, dated 2016)
Read-outs that look alike come from different tables or passages of the source.

Assays:
[1] = tested on: Akt phosphorylation induced by IGF-1R in HT-29 cells; experiment: Western blot analysis of Akt phosphorylation induced by IGF-1R; assay type: cell-based, Human; settings: then IGF-1 10 ng/mL 10 min, HT-29
Method: Inhibition of Akt phosphorylation induced by IGF-1R was studied by western blot analysis. Human colon carcinoma HT-29 cells were seeded at a density of 8×10^4 cells/well in a 24-well plate and grown in DME/F12 media containing 10% FBS for 24 h. The cells were then depleted of serum by incubation in DME/F12 media lacking FBS for 24 h. […] […] Lysed cells were centrifuged at 13,000 rpm for 15 min and the protein concentration soluble fraction (supernatant) of each sample was determined using a BCA protein assay (Pierce).

IGF1R = IGF1R (Homo sapiens, UniProt P08069); experiment: In vitro IGF-1R enzymatic assay (ADP-Glo kinase assay); assay type: biochemical; set-up: purchased Millipore 14-802; settings: activated IGF-1R; for inhibition at 0.03 µM: 30 nM; for IC50: read-out: IC50
IGF1R, sequence (P08069 31-1367): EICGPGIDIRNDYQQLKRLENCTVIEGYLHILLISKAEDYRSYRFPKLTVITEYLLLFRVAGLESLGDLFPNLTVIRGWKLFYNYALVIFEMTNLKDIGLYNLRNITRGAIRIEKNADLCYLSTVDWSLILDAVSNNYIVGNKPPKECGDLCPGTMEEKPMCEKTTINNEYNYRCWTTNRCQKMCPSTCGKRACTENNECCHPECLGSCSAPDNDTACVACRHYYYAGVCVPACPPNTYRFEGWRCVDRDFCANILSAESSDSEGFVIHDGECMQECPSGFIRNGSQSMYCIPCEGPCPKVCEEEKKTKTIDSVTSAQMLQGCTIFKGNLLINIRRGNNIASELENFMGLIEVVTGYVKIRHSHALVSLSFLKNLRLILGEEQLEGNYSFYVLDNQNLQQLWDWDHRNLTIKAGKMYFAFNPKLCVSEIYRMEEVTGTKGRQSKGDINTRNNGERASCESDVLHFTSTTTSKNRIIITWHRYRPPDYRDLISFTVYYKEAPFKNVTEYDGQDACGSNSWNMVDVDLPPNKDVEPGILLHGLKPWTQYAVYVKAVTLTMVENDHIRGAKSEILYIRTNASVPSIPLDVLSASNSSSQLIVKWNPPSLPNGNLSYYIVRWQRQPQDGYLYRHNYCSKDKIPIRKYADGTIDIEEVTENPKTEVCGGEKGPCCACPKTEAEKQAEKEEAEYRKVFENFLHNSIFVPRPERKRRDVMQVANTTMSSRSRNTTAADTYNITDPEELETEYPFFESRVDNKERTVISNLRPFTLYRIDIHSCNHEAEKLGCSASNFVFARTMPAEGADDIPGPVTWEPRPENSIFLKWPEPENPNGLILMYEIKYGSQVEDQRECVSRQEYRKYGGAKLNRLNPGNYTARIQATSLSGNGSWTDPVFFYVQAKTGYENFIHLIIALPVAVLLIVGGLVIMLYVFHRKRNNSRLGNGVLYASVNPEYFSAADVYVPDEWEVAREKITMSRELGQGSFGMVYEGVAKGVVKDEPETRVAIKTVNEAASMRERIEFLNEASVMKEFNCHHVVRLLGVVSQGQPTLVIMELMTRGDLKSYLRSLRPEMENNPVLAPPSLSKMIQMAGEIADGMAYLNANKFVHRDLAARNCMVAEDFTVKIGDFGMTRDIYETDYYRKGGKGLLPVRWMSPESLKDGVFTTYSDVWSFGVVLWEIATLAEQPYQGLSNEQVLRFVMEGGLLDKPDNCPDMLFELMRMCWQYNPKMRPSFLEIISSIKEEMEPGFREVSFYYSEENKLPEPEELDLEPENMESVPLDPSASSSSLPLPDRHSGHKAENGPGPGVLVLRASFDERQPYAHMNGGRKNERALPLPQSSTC
Method: (§1) IC50 values of the compounds of the invention against IGF-1R and IR were measured in vitro using an ADP-Glo kinase assay Kit (Promega). […] Kinase reactions in both assays were conducted at 30° C. for 20 min with increasing concentrations of compounds of the invention.

IR = biological target: T1, IR (Homo sapiens, UniProt P06213); experiment: In vitro IR enzymatic assay (ADP-Glo kinase assay); assay type: biochemical; settings: activated IR; for IC50: read-out: IC50; for inhibition at 0.03 µM: 30 nM
T1 construct: purchased Millipore 14-803
T1 sequence (P06213 28-1382): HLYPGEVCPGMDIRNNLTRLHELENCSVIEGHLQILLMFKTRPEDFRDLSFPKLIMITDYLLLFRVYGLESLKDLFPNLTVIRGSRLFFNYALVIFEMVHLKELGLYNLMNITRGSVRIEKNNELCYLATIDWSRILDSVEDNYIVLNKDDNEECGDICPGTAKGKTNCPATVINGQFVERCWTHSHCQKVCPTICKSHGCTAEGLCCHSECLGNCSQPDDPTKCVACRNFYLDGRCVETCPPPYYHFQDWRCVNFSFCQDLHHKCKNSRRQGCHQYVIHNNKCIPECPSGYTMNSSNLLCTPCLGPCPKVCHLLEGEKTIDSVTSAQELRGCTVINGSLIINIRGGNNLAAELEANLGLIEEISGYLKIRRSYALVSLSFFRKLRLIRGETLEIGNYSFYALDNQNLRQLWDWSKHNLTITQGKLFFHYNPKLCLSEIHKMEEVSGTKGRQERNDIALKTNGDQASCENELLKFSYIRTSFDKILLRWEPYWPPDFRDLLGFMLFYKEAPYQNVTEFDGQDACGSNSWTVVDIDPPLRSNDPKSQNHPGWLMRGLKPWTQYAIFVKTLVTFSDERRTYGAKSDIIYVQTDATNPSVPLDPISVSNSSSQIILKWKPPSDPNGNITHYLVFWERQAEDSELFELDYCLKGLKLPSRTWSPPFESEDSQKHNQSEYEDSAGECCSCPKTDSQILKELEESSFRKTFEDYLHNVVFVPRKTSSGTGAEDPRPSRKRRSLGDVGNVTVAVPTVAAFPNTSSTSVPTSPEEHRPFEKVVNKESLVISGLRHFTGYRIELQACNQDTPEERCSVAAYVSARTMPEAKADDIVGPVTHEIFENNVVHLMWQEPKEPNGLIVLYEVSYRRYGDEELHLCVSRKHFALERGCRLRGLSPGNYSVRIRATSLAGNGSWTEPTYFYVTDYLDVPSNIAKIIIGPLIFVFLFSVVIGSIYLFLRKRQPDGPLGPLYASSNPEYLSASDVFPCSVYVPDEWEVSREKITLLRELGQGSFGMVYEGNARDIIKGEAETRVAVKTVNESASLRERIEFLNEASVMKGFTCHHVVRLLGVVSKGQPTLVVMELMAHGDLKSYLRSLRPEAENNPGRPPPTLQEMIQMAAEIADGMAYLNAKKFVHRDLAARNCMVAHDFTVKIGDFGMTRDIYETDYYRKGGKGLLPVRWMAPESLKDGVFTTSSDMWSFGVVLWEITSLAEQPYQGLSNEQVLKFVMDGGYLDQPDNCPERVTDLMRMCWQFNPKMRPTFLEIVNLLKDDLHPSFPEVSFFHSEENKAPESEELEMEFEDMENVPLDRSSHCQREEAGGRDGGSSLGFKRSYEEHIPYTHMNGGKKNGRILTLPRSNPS
Method: as §1

AXL = biological target: T2, AXL (Homo sapiens, UniProt P30530); experiment: Caliper kinase profiling: AXL; settings: 0.01 μM
T2 sequence (P30530 26-894): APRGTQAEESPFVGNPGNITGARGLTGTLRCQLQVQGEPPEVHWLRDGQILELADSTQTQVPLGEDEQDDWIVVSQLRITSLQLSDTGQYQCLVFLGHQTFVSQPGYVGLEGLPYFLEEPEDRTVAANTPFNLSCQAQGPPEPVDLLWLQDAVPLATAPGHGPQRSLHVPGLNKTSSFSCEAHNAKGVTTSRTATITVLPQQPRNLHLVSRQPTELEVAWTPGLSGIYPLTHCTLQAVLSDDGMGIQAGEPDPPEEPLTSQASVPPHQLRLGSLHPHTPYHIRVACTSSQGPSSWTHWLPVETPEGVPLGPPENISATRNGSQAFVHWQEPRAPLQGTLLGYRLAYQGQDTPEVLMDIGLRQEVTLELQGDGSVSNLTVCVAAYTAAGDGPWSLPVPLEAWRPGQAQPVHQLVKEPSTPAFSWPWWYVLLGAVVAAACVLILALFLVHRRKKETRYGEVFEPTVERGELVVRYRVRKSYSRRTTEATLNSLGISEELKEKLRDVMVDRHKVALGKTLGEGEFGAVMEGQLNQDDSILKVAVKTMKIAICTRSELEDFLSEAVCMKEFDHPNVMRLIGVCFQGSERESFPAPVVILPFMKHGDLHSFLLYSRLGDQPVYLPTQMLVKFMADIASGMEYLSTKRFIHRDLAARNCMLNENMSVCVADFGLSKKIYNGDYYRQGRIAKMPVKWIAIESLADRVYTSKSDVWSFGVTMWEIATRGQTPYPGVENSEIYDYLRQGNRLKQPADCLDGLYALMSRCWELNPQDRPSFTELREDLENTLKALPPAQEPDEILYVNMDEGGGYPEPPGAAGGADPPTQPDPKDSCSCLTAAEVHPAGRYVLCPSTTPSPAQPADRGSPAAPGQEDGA
Method: (§2) The compound was tested at concentrations of 1.0×10^−8 and 1.0×10^−9 M in the RapidKinase192™ panel in duplicate. […] The screening was performed using the Caliper EZReader2, a 4-sipper LabChip, and ProfilerPro Kinase Selectivity Assay Kits 1 and 2. The assay measures the conversion of a fluorescent peptide substrate to a phosphorylated product. Briefly, the reaction mixture was introduced through a capillary sipper onto the microfluidic chip, where the substrate and product were electrophoretically separated and detected by laser-induced fluorescence. The time-dependent fluorescence signal indicates the extent of the reaction.
(§3) The kinases tested were AurA, AurB, AurC, AXL, FAK2, IGF1R, InsR, Mer, MET, TrkB and TrkC.
(§4) The assays were conducted using the Caliper LabChip 3000 and a 12-sipper LabChip as described above.

FAK2(PTK2b) = FAK2(PTK2b) (Homo sapiens, UniProt Q14289); experiment: Caliper kinase assay: FAK2(PTK2b); settings: 0.01 μM
FAK2(PTK2b), sequence (Q14289 whole entry): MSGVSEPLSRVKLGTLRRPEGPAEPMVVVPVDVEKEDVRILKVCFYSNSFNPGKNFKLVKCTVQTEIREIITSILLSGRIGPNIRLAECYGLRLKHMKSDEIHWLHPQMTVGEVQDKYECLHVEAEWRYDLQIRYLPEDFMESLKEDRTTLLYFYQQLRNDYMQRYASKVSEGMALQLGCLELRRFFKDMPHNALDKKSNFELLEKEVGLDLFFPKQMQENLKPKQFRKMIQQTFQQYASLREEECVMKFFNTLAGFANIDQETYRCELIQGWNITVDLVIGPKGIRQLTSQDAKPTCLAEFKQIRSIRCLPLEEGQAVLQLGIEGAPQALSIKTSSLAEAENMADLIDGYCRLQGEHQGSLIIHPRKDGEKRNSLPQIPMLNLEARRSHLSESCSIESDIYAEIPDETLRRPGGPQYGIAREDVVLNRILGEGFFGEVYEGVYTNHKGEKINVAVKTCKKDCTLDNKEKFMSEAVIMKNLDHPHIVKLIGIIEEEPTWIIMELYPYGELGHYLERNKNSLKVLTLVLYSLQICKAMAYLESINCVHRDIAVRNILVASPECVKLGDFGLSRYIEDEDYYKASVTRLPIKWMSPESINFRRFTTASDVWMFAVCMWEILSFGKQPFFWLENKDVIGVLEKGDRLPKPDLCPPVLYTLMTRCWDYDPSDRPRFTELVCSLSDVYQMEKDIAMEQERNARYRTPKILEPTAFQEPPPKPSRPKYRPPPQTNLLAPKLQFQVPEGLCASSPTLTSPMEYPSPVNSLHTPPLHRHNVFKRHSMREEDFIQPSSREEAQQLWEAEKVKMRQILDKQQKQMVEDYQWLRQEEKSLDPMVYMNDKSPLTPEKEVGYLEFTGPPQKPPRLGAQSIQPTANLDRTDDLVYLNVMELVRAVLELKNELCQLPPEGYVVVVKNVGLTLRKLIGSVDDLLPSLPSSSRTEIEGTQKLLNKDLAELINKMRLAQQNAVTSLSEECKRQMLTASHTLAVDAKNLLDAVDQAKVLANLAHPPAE
Method: as §2, §3, §4

NTRK2 (TRKB) = NTRK2 (TRKB) (Homo sapiens, UniProt Q16620); experiment: Caliper kinase profiling: NTRK2 (TRKB); settings: 0.01 μM
Method: as §2, §3, §4

TRKC (NTRK3) = TRKC (NTRK3) (Homo sapiens, UniProt Q16288); experiment: Caliper kinase profiling: TRKC (NTRK3); settings: 0.01 μM
TRKC (NTRK3), sequence (Q16288 32-839): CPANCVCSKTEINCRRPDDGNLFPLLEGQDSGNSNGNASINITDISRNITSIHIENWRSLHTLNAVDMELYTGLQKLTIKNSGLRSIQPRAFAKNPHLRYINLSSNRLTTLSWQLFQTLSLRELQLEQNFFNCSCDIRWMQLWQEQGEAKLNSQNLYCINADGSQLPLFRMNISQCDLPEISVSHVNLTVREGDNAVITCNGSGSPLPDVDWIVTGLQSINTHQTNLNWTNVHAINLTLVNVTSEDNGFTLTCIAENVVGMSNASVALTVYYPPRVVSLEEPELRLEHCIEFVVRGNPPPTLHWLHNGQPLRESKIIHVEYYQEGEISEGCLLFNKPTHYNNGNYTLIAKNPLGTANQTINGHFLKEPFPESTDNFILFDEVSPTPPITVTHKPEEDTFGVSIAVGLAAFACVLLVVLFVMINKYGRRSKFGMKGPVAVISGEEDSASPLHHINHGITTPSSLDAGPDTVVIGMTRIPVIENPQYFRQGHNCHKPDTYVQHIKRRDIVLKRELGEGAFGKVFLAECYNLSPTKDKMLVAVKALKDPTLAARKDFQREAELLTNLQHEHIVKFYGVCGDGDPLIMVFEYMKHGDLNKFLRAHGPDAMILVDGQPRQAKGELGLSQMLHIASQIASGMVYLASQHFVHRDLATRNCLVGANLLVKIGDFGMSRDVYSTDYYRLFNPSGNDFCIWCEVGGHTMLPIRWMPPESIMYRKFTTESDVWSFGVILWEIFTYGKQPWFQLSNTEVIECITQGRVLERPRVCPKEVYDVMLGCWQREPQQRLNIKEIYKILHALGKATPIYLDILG
Method: as §2, §3, §4

[2] = average, read-out: % Inh @ 30 nM Avg
[3] = replicate N1, read-out: % Inh @ 30 nM (N1)
[4] = replicate N2, read-out: % Inh @ 30 nM (N2)

SMILES	phosphorylated AKT levels normalized to actin levels (pAKT/actin) ([1]; 0.1 nM compound 2 h)	phosphorylated AKT levels normalized to actin levels (pAKT/actin) ([1]; 100 nM compound 2 h)	inhibition at 0.03 µM (IGF1R; [2]) [%]	inhibition at 0.03 µM (IGF1R; [3]) [%]	IC50 (IR) [nM]	inhibition at 0.03 µM (IR; [2]) [%]	also measured
O=C(Nc1ccc(F)nc1)C1CCCN1c1nc2c(c(Nc3cc(C4CCCC4)[nH]n3)n1)CCCC2 (single isomer, unassigned) [Compound 15a, 1-(4-(5-cyclopentyl-1H-pyrazol-3-ylamino)-5,6,7,8-tetrahydroquinazolin-2-yl)-N-(6-fluoropyridin-3-yl)pyrrolidine-2-carboxamide]	0.70	0.59	19	17			phosphorylated AKT levels normalized to actin levels (pAKT/actin) ([1]; 1 nM compound 2 h): 0.89; phosphorylated AKT levels normalized to actin levels (pAKT/actin) ([1]; 10 nM compound 2 h): 0.92; inhibition at 0.03 µM (IGF1R; [4]): 20%
O=C(Nc1ccc(F)nc1)C1CC(O)CN1c1nc2c(c(Nc3cc(C4CC4)[nH]n3)n1)CCC2 (single isomer, unassigned) [Compound 10d, 1-(4-(5-cyclopropyl-1H-pyrazol-3-ylamino)-6,7-dihydro-5H-cyclopenta[d]pyrimidin-2-yl)-N-(6-fluoropyridin-3-yl)-4-hydroxypyrrolidine-2-carboxamide]					7.2		IC50 (IGF1R): 5.8 nM; inhibition of AXL in panel of 11 kinases (AXL): strongly inhibited; inhibition of FAK2 in panel of 11 kinases (FAK2(PTK2b)): strongly inhibited; inhibition of TrkB in panel of 11 kinases (NTRK2 (TRKB)): strongly inhibited; inhibition of TrkC in panel of 11 kinases (TRKC (NTRK3)): strongly inhibited
O=C(Nc1ccc(F)nc1)C1CCCCN1c1nc2c(c(Nc3cc(C4CC4)[nH]n3)n1)CCC2 (single isomer, unassigned) [Compound 9b, 1-(4-(5-cyclopropyl-1H-pyrazol-3-ylamino)-6,7-dihydro-5H-cyclopenta[d]pyrimidin-2-yl)-N-(6-fluoropyridin-3-yl)piperidine-2-carboxamide]		0.78	16	14		6	inhibition at 0.03 µM (IR; [3]): 3%; inhibition at 0.03 µM (IR; [4]): 9%; inhibition at 0.03 µM (IGF1R; [4]): 17%
CC(C)c1cc(Nc2nc(N3CCCC3C(=O)Nc3ccc(N)nc3)nc3c2CCC3)n[nH]1 (racemic) [Compound 72, N-(6-aminopyridin-3-yl)-1-(4-(5-isopropyl-1H-pyrazol-3-ylamino)-6,7-dihydro-5H-cyclopenta[d]pyrimidin-2-yl)pyrrolidine-2-carboxamide]					16		
CC(C)c1cc(Nc2nc(N3CCCC3C(=O)Nc3ccncn3)nc3c2CCC3)n[nH]1 (racemic) [Compound 69, 1-(4-(5-isopropyl-1H-pyrazol-3-ylamino)-6,7-dihydro-5H-cyclopenta[d]pyrimidin-2-yl)-N-(pyrimidin-4-yl)pyrrolidine-2-carboxamide]					32		
CC(C)c1cc(Nc2nc(N3CCCC3C(=O)Nc3nccs3)nc3c2CCC3)n[nH]1 (racemic) [Compound 68, 1-(4-(5-isopropyl-1H-pyrazol-3-ylamino)-6,7-dihydro-5H-cyclopenta[d]pyrimidin-2-yl)-N-(thiazol-2-yl)pyrrolidine-2-carboxamide]					11		
CC(C)c1cc(Nc2nc(N3CC(O)CC3C(=O)Nc3nccs3)nc3c2CCC3)n[nH]1 (racemic) [Compound 71, 4-hydroxy-1-(4-(5-isopropyl-1H-pyrazol-3-ylamino)-6,7-dihydro-5H-cyclopenta[d]pyrimidin-2-yl)-N-(thiazol-2-yl)pyrrolidine-2-carboxamide]					44		
CC(C)c1cc(Nc2nc(N3CCCC3C(=O)Nc3ccc(F)nc3)nc3c2CC(C)(C)C3)n[nH]1 (racemic) [Compound 50, N-(6-fluoropyridin-3-yl)-1-(4-((5-isopropyl-1H-pyrazol-3-yl)amino)-6,6-dimethyl-6,7-dihydro-5H-cyclopenta[d]pyrimidin-2-yl)pyrrolidine-2-carboxamide]			35		36	51	
CC(C)c1cc(Nc2nc(N3CC(O)CC3C(=O)Nc3ccc(F)nc3)nc3c2CCC3)n[nH]1 (racemic) [Compound 70, N-(6-fluoropyridin-3-yl)-4-hydroxy-1-(4-(5-isopropyl-1H-pyrazol-3-ylamino)-6,7-dihydro-5H-cyclopenta[d]pyrimidin-2-yl)pyrrolidine-2-carboxamide]					22		
CC(C)c1cc(Nc2nc(N3CCCC3C(=O)Nc3ccc(F)nc3)nc3c2CCCC3)n[nH]1 (single isomer, unassigned) [Compound 13b, N-(6-fluoropyridin-3-yl)-1-(4-(5-isopropyl-1H-pyrazol-3-ylamino)-5,6,7,8-tetrahydroquinazolin-2-yl)pyrrolidine-2-carboxamide]	0.22	0.00			13		phosphorylated AKT levels normalized to actin levels (pAKT/actin) ([1]; 1 nM compound 2 h): 0.09; phosphorylated AKT levels normalized to actin levels (pAKT/actin) ([1]; 10 nM compound 2 h): 0.00; IC50 (IGF1R): 17 nM
O=C(Nc1ccc(F)nc1)C1CCCCN1c1nc2c(c(Nc3cc(C4CCCC4)[nH]n3)n1)CCC2 (single isomer, unassigned) [Compound 17a, 1-(4-(5-cyclopentyl-1H-pyrazol-3-ylamino)-6,7-dihydro-5H-cyclopenta[d]pyrimidin-2-yl)-N-(6-fluoropyridin-3-yl)piperidine-2-carboxamide]	0.89		18	12		3	inhibition at 0.03 µM (IR; [3]): 2%; inhibition at 0.03 µM (IR; [4]): 5%; inhibition at 0.03 µM (IGF1R; [4]): 24%
COC1CC(C(=O)Nc2ccc(F)nc2)N(c2nc3c(c(Nc4cc(C5CC5)[nH]n4)n2)CCC3)C1 (single isomer, unassigned) [Compound 21b]					120	30	
O=C(Nc1ccc(F)nc1)C1CCCN1c1nc2c(c(Nc3cc(C4CC4)[nH]n3)n1)CCCC2 (single isomer, unassigned) [Compound 14b, 1-(4-(5-cyclopropyl-1H-pyrazol-3-ylamino)-5,6,7,8-tetrahydroquinazolin-2-yl)-N-(6-fluoropyridin-3-yl)pyrrolidine-2-carboxamide]	0.51	0.00	77	77	16	81	phosphorylated AKT levels normalized to actin levels (pAKT/actin) ([1]; 1 nM compound 2 h): 0.49; phosphorylated AKT levels normalized to actin levels (pAKT/actin) ([1]; 10 nM compound 2 h): 0.02; inhibition at 0.03 µM (IR; [3]): 82%; inhibition at 0.03 µM (IR; [4]): 81%; inhibition at 0.03 µM (IGF1R; [4]): 76%; IC50 (IGF1R): 22 nM
CC(C)c1cc(Nc2nc(N3CCCCC3C(=O)Nc3ccc(F)nc3)nc3c2CCC3)n[nH]1 (single isomer, unassigned) [Compound 16a, N-(6-fluoropyridin-3-yl)-1-(4-(5-isopropyl-1H-pyrazol-3-ylamino)-6,7-dihydro-5H-cyclopenta[d]pyrimidin-2-yl)piperidine-2-carboxamide]	0.82	0.30	21	27			phosphorylated AKT levels normalized to actin levels (pAKT/actin) ([1]; 1 nM compound 2 h): 0.62; phosphorylated AKT levels normalized to actin levels (pAKT/actin) ([1]; 10 nM compound 2 h): 0.61
